# According to patent publication US20240309059A1, “PEPTIDE HAVING ANTI-VIRAL ACTIVITY, ANTI-VIRAL AGENT COMPRISING SAID PEPTIDE, AND METHOD FOR PRODUCING SAID ANTI-VIRAL AGENT” (National University Corporation Tokyo Medical and Dental …, priority 2021, published 2024):
# pIC50: −log10 of the molar value. Ends that are not written are not given here.
# What was measured:
# [1] = solubility to 50 mM HEPES buffer solution (pH 8.0); assay type: physicochemical; conditions: room temperature
# Experimental: In this Example, Ce113, Ce149, Ce172, Ce173 and Ce174 developed in the aforementioned Examples were each dissolved in 50 mM HEPES buffer solution (pH 8.0) and the degrees of solubility of them to 50 mM HEPES buffer solution (pH 8.0) were computationally obtained.
# Ce113, Ce149, Ce172, Ce173 and Ce174 having the aforementioned amino acid sequences were chemically synthesized and each dissolved in a 50 mM HEPES buffer solution (pH 8.0). To describe more specifically, the peptides chemically synthesized were each added to the 50 mM HEPES buffer solution (pH 8.0) of 250 μL and stirred by pipetting using a micropipette a sufficient number of times and allowed to stand still at room temperature. When undissolved residue was not present, the peptide was further added and the same operation was repeated. When undissolved residue was present, the sample was allowed to stand still for 10 minutes, stirred by pipetting using a micropipette a sufficient number of times and allowed to stand still at room temperature. The operation of this step was repeated further twice and then concentration was measured by NanoPhotometer NP80 manufactured by IMPLEN to evaluate the degrees of solubility to the 50 mM HEPES buffer solution (pH 8.0).
# [2] = biological target: receptor binding domain (RBD) in wild-type SARS-COV-2 (Severe acute respiratory syndrome coronavirus 2, UniProt P0DTC2); conditions: result in words (binding rate and degree of dissociation)
# [3] = solubility to ultra-pure water; assay type: physicochemical; conditions: room temperature
# Experimental: In this Example, Ce4, Ce9, Ce41 and Ce59 developed in the aforementioned Examples were each dissolved in ultra-pure water and the degrees of solubility of them to ultra-pure water were computationally obtained.
# Ce4, Ce9, Ce41 and Ce59 having the aforementioned amino acid sequences were chemically synthesized and each dissolved in ultra-pure water. To describe more specifically, the peptides chemically synthesized were each added to ultra-pure water of 250 μL and stirred by pipetting using a micropipette a sufficient number of times and allowed to stand still at room temperature. When undissolved residue was not present, the peptide was further added and the same operation was repeated. When undissolved residue was present, the sample was allowed to stand still for 10 minutes, again stirred by pipetting using a micropipette a sufficient number of times and allowed to stand still at room temperature. After the operation in this step was repeated further twice, concentration was measured by NanoPhotometer NP80 manufactured by IMPLEN to evaluate the degrees of solubility to ultra-pure water.
molecule,measurement,setting,value
DKLWILQKIYEIMQRLDEEGHGEASLMVSDLIYEFMKRD [Ce173],solubility thermodynamic at 30 min,[1],1500 µM
DKLWILQKIYEIMVRLDEEGHGEASLMVSDLIYEFMKRD [Ce172],solubility thermodynamic at 30 min,[1],1100 µM
DKEWILQKIYEIMRRLDEEGHGEASLRVSDLIYEFMKKD [Ce41],binding activity to the receptor binding domain (RBD),[2],high binding activity
same,solubility,[3],6100 µM
DKEWILQKIYEIMRKLDEDGHAEASMRVSDLIYEFMKKD [Ce4],solubility thermodynamic at 30 min,[3],4400 µM
DKEWILYKIYEIMQRLDEEGHGEASLMVSDLIYEFMKRD [Ce174],solubility thermodynamic at 30 min,[1],1600 µM
"CC[C@H](C)[C@H](NC(=O)[C@H](CC(C)C)NC(=O)[C@H](CC(=O)O)NC(=O)[C@H](CO)NC(=O)[C@@H](NC(=O)[C@H](CCCNC(=N)N)NC(=O)[C@H](CCSC)NC(=O)[C@H](CO)NC(=O)[C@H](C)NC(=O)[C@H](CCC(=O)O)NC(=O)[C@H](C)NC(=O)[C@H](Cc1c[nH]cn1)NC(=O)CNC(=O)[C@H](CC(C)C)NC(=O)[C@H](CCC(=O)O)NC(=O)[C@H](CC(=O)O)NC(=O)[C@H](CC(C)C)NC(=O)[C@H](CC(C)C)NC(=O)[C@H](CCCNC(=N)N)NC(=O)[C@H](CCSC)NC(=O)[C@@H](NC(=O)[C@H](CCC(=O)O)NC(=O)[C@H](Cc1ccc(O)cc1)NC(=O)[C@@H](NC(=O)[C@H](CCCCN)NC(=O)[C@H](CCC(N)=O)NC(=O)[C@H](CC(C)C)NC(=O)[C@@H](NC(=O)[C@H](Cc1c[nH]c2ccccc12)NC(=O)[C@H](CCC(=O)O)NC(=O)[C@H](CCCCN)NC(=O)[C@@H](N)CC(=O)O)[C@@H](C)CC)[C@@H](C)CC)[C@@H](C)CC)C(C)C)C(=O)N[C@@H](Cc1ccc(O)cc1)C(=O)N[C@@H](CCC(=O)O)C(=O)N[C@@H](Cc1ccccc1)C(=O)N[C@@H](CCSC)C(=O)N[C@@H](CCCCN)C(=O)N[C@@H](CCCCN)C(=O)NCC(=O)O [Ca1, reference compound]",pIC50,wild-type SARS-COV-2,6.97
DKEWILYKIYEIMVRLDEEGHGEASLMVSDLIYEFMKRD [Ce149],solubility thermodynamic at 30 min,[1],1300 µM
CC[C@H](C)[C@H](NC(=O)[C@H](CC(C)C)NC(=O)[C@H](CC(=O)O)NC(=O)[C@H](CO)NC(=O)[C@@H](NC(=O)[C@H](CCCNC(=N)N)NC(=O)[C@H](CCSC)NC(=O)[C@H](CO)NC(=O)[C@H](C)NC(=O)[C@H](CCC(=O)O)NC(=O)[C@H](C)NC(=O)[C@H](Cc1c[nH]cn1)NC(=O)CNC(=O)[C@H](CC(C)C)NC(=O)[C@H](CCC(=O)O)NC(=O)[C@H](CC(=O)O)NC(=O)[C@H](CC(C)C)NC(=O)[C@H](CC(C)C)NC(=O)[C@H](CCCNC(=N)N)NC(=O)[C@H](CCSC)NC(=O)[C@@H](NC(=O)[C@H](CCC(=O)O)NC(=O)[C@H](Cc1ccc(O)cc1)NC(=O)[C@@H](NC(=O)[C@H](CCCCN)NC(=O)[C@H](CCC(N)=O)NC(=O)[C@H](CC(C)C)NC(=O)[C@@H](NC(=O)[C@H](Cc1c[nH]c2ccccc12)NC(=O)[C@H](CCC(=O)O)NC(=O)[C@H](CCCCN)NC(=O)[C@@H](N)CC(=O)O)[C@@H](C)CC)[C@@H](C)CC)[C@@H](C)CC)C(C)C)C(=O)N[C@@H](Cc1ccc(O)cc1)C(=O)N[C@@H](CCC(=O)O)C(=O)N[C@@H](Cc1ccccc1)C(=O)N[C@@H](CCSC)C(=O)N[C@@H](CCCCN)C(=O)N[C@@H](CCCCN)C(=O)N[C@@H](CC(=O)O)C(=O)O [Ce1],pIC50,wild-type SARS-COV-2,8.82
DKEWILQKIYEIMQRLDEEGHGEASLMVSDLIYEFMKRD [Ce113],solubility thermodynamic at 30 min,[1],2500 µM
DKEWILQKIYEIMRRLDEEGHAEASMRVSDLIYEFMKKD [Ce9],pIC50,wild-type SARS-COV-2,9.40
same,solubility thermodynamic at 30 min,[3],5200 µM
DKEWILQKIYEIMRRLDEEGHGEASLRVSDLIYEFMKRD [Ce59],solubility thermodynamic at 30 min,[3],6100 µM
